According to ChEMBL document CHEMBL1201862, “PubChem BioAssay data set” (2004):
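A five-concentration, 48-hour dose response in 96-well plates underlies each endpoint, interpolated linearly between surrounding concentrations. GI50 is the concentration that inhibits growth by half.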 Calls of active or inactive are those of the source. No stated cut-off is given here; in the data, active = GI50 up to about 1.1 µM and inactive = higher.

How the values were obtained:
Experiment in all cases: NCI anticancer screen, dose series, 48 h
[1] = test system: A549
[2] = test system: SNB-75
[3] = test system: CAKI-1
[4] = test system: UACC-62
[5] = test system: SR
[6] = test system: OVCAR-4
[7] = test system: OVCAR-8
[8] = test system: OVCAR-3
[9] = test system: HCC 2998
[10] = test system: ACHN
[11] = test system: HOP-62
[12] = test system: MCF7
[13] = test system: SF-539
[14] = test system: COLO 205
[15] = test system: HL-60
[16] = test system: OVCAR-5
[17] = test system: KM12
[18] = test system: MDA-MB-435
[19] = test system: HCT-116
[20] = test system: MDA-N
[21] = test system: MDA-MB-231
[22] = test system: NCI/ADR-RES
[23] = test system: T47D
[24] = test system: HOP-92
[25] = test system: SK-MEL-28
[26] = test system: RXF 393
[27] = test system: CCRF-CEM
[28] = test system: PC-3
[29] = test system: BT-549
[30] = test system: HT-29
[31] = test system: HCT-15
[32] = test system: Malme-3M
[33] = test system: EKVX
[34] = test system: NCI-H522
[35] = test system: K562
[36] = test system: NCI-H460
[37] = test system: SNB-19
[38] = test system: SW-620
[39] = test system: SF-268
[40] = test system: NCI-H23
[41] = test system: MOLT-4
[42] = test system: SN12C
[43] = test system: UO-31
[44] = test system: A498
[45] = test system: SK-MEL-2
[46] = test system: SF-295
[47] = test system: SK-MEL-5
[48] = test system: RPMI-8226
[49] = test system: NCI-H226
[50] = test system: 786-0
[51] = test system: UACC-257
[52] = test system: SK-OV-3
[53] = test system: U-251
[54] = test system: LOX IMVI
[55] = test system: IGROV-1
[56] = test system: Hs-578T
[57] = test system: TK-10
[58] = test system: DU-145

COC(=O)c1ccc(C)cc1C1CN=NC12Cc1c(C)cccc1C2=O (stereo not drawn)
GI50 [1]: 49.4 µM (inactive) | GI50 [2]: 32 µM (inactive) | GI50 [3]: 50.6 µM (inactive) | GI50 [4]: 28.4 µM (inactive) | GI50 [5]: 33.3 µM (inactive) | GI50 [6]: 44.1 µM (inactive) | GI50 [7]: 60.1 µM (inactive) | GI50 [8]: 27 µM (inactive) | GI50 [9]: > 100 µM (inactive) | GI50 [10]: 45.4 µM (inactive) | GI50 [11]: 46.8 µM (inactive) | GI50 [12]: 0.394 µM (active) | GI50 [13]: 89.1 µM (inactive) | GI50 [14]: 20.2 µM (inactive) | GI50 [15]: 28.4 µM (inactive) | GI50 [16]: 73.5 µM (inactive) | GI50 [17]: 32.1 µM (inactive) | GI50 [18]: 41 µM (inactive) | GI50 [19]: 25.6 µM (inactive) | GI50 [20]: 37.5 µM (inactive) | GI50 [21]: 38.5 µM (inactive) | GI50 [22]: 20.3 µM (inactive) | GI50 [23]: 23.7 µM (inactive) | GI50 [24]: 38.6 µM (inactive) | GI50 [25]: 80.4 µM (inactive) | GI50 [26]: 48.3 µM (inactive) | GI50 [27]: 53.5 µM (inactive) | GI50 [28]: 40.2 µM (inactive) | GI50 [29]: 75 µM (inactive) | GI50 [30]: 31.1 µM (inactive) | GI50 [31]: 28.6 µM | GI50 [32]: 58.2 µM (inactive) | GI50 [33]: > 100 µM (inactive) | GI50 [34]: 24.2 µM (inactive) | GI50 [35]: 47.5 µM (inactive) | GI50 [36]: 64.7 µM (inactive) | GI50 [37]: 73.1 µM (inactive) | GI50 [38]: 58.9 µM (inactive) | GI50 [39]: 52.2 µM (inactive) | GI50 [40]: 39.4 µM (inactive) | GI50 [41]: 41.7 µM (inactive) | GI50 [42]: 36 µM (inactive) | GI50 [43]: 42.9 µM (inactive) | GI50 [44]: 52.5 µM (inactive) | GI50 [45]: 43.5 µM (inactive) | GI50 [46]: 50.4 µM (inactive) | GI50 [47]: 30 µM (inactive) | GI50 [48]: 36.6 µM (inactive) | GI50 [49]: 47 µM (inactive) | GI50 [50]: 52.1 µM (inactive) | GI50 [51]: 49.7 µM (inactive) | GI50 [52]: 94.8 µM (inactive) | GI50 [53]: 42.1 µM (inactive) | GI50 [54]: 24.3 µM (inactive) | GI50 [55]: 46.1 µM (inactive) | GI50 [56]: 37.6 µM (inactive) | GI50 [57]: 99.3 µM (inactive) | GI50 [58]: 55.7 µM (inactive)
